Series [1] relates to Calf thymus DNA. To be noted: Bos taurus.
Description: Association constant measured for binding towards poly[d(A-T)] of DNA in calf thymus
A short description of series [2]: physchem.
Description: Ionisation constant (pKa)

For `COc1cc(NS(C)(=O)=O)ccc1Nc1c2ccccc2nc2c(OCC(O)CO)cccc12` (stereo not given), the Log K in series [1] came out at 5.9. Also, the pKa in series [2] turned out to be 7.3.

In turn, `COc1cc(NS(C)(=O)=O)ccc1Nc1c2ccccc2nc2cnccc12` had a Log K in series [1] of 5.09. Further, the pKa in series [2] came out at 5.53. The matching figures for `COc1cc(NS(C)(=O)=O)ccc1Nc1c2ccccc2nc2c(OC)cccc12`: 5.94 and 7.39. The matching figures for `COc1cc(NS(C)(=O)=O)ccc1Nc1c2ccccc2nc2cc(C(N)=O)ccc12`: 5.66 and 6.66.

`COc1cc(NS(C)(=O)=O)ccc1Nc1c2ccccc2nc2cc(Cl)ccc12` registered a Log K in series [1] of 6.06. The pKa in series [2] was 6.84. In turn, `COc1cc(NS(C)(=O)=O)ccc1Nc1c2ccccc2nc2c([N+](=O)[O-])cccc12` displayed a Log K in series [1] of 5.2. In series [2], the pKa came to 5.05. As to `COC(=O)Nc1ccc2c(Nc3ccc(NS(C)(=O)=O)cc3OC)c3ccccc3nc2c1`, in series [1], the Log K was determined as 6.37. In addition, in series [2], the pKa worked out at 7.77.

In series [1], `COc1cc(NS(C)(=O)=O)ccc1Nc1c2ccccc2nc2cc(F)ccc12` returned a Log K of 5.54. The same compound came in with a pKa in series [2] of 7.05. In series [1], `CNC(=O)COc1cccc2c(Nc3ccc(NS(C)(=O)=O)cc3OC)c3ccccc3nc12` returned a Log K of 5.8. For the same compound, in series [2], the pKa is 7.35.

`COc1cc(NS(C)(=O)=O)ccc1Nc1c2ccccc2nc2c(C#N)cccc12` showed a Log K in series [1] of 5.01. In series [2], this compound came in with a pKa of 4.87. For `COc1cc(NS(C)(=O)=O)ccc1Nc1c2ccccc2nc2cc(NC(C)=O)ccc12`, the Log K in series [1] was 6.24. Consider `COc1cc(NS(C)(=O)=O)ccc1Nc1c2ccccc2nc2cc(C(F)(F)F)ccc12`, for which, in series [1], the Log K was 5.24. For the same compound, in series [2], the pKa was found to be 6.24. On to `COc1cc(NS(C)(=O)=O)ccc1Nc1c2ccccc2nc2cc(Br)ccc12`, for which the Log K in series [1] came out at 6.29. Besides, in series [2], the pKa is 6.84. Take `COc1cc(NS(C)(=O)=O)ccc1Nc1c2ccccc2nc2c(C(=O)NCCCO)cccc12`: the Log K in series [1] was determined as 5.4. The compound further returned a pKa in series [2] of 6.3.

With `COc1cc(NS(C)(=O)=O)ccc1Nc1c2ccccc2nc2c(-c3ccccc3)cccc12`, the Log K in series [1] came out at 5.6. In addition, the pKa in series [2] was 7.02. On to `COc1cc(NS(C)(=O)=O)ccc1Nc1c2ccccc2nc2cc(I)ccc12`, for which the Log K in series [1] stood at 6.35. The pKa in series [2] amounted to 6.77.

`CCc1ccc2c(Nc3ccc(NS(C)(=O)=O)cc3OC)c3ccccc3nc2c1` had a Log K in series [1] of 5.66. This compound gave a pKa in series [2] of 7.65.

As for `COc1cc(NS(C)(=O)=O)ccc1Nc1c2ccccc2nc2ccc(C(C)C)cc12`, the Log K in series [1] turned out to be 5.39. The compound further came in with a pKa in series [2] of 7.4. Compound `COc1cc(NS(C)(=O)=O)ccc1Nc1c2ccccc2nc2c(C(=O)N3CCOCC3)cccc12` showed a Log K in series [1] of 4.96. In series [2], this compound returned a pKa of 6.03. `COc1cc(NS(C)(=O)=O)ccc1Nc1c2ccccc2nc2c(Cl)cccc12` registered a Log K in series [1] of 5.76. This compound showed a pKa in series [2] of 6.11. In series [1], `COc1cc(NS(C)(=O)=O)ccc1Nc1c2ccccc2nc2cc(N)ccc12` came in with a Log K of 6.21. Further, in series [2], the pKa came out at 9.92. The matching figures for `COc1cc(NS(C)(=O)=O)ccc1Nc1c2ccccc2nc2ccc(F)cc12`: 5.28 and 6.71.

In the case of `COc1cc(NS(C)(=O)=O)ccc1Nc1c2ccccc2nc2cc(C#N)ccc12`, the Log K in series [1] was found to be 5.65. In series [2], this compound registered a pKa of 5.94. Compound `COc1cc(NS(C)(=O)=O)ccc1Nc1c2ccccc2nc2ncccc12` returned a Log K in series [1] of 5.27. For the compound `COc1cc(NS(C)(=O)=O)ccc1Nc1c2ccccc2nc2cc([N+](=O)[O-])ccc12`, in series [1], the Log K was 5.65. Still for that read-out and setting: the same measure for `CNC(=O)c1cccc2c(Nc3ccc(NS(C)(=O)=O)cc3OC)c3ccccc3nc12`: 5.54. In turn, `COc1cc(NS(C)(=O)=O)ccc1Nc1c2ccccc2nc2cc(C)ccc12` gave a Log K in series [1] of 5.95. In series [2], this compound showed a pKa of 7.7. The matching figures for `CNc1ccc2c(Nc3ccc(NS(C)(=O)=O)cc3OC)c3ccccc3nc2c1`: 6.17 and 10.1. Compound `COc1cc(NS(C)(=O)=O)ccc1Nc1c2ccccc2nc2c(C(=O)N(C)C)cccc12` displayed a Log K in series [1] of 5.04. Turning to `COc1ccc2c(Nc3ccc(NS(C)(=O)=O)cc3OC)c3ccccc3nc2c1`, the Log K in series [1] was determined as 5.83. In series [2], the pKa is 7.81.

In series [1], `COc1cc(NS(C)(=O)=O)ccc1Nc1c2ccccc2nc2c(C(=O)NCC(N)=O)cccc12` registered a Log K of 5.39. Take `COc1cc(NS(C)(=O)=O)ccc1Nc1c2ccccc2nc2ccc(N)cc12`: in series [1], the Log K is 5.95. The compound also displayed a pKa in series [2] of 7.37. The compound `COc1cc(NS(C)(=O)=O)ccc1Nc1c2ccccc2nc2c(C(=O)NCC(O)CO)cccc12` (stereo not given) gave a Log K in series [1] of 5.26. Regarding `COc1cc(NS(C)(=O)=O)ccc1Nc1c2ccccc2nc2ccc(C)cc12`, the Log K in series [1] was determined as 5.35. The compound also came in with a pKa in series [2] of 7.45. The matching figures for `COc1cc(NS(C)(=O)=O)ccc1Nc1c2ccccc2nc2c(Br)cccc12`: 5.57 and 6.09. On to `COc1cc(NS(C)(=O)=O)ccc1Nc1c2ccccc2nc2c(C(=O)NCCO)cccc12`, for which, in series [1], the Log K was determined as 5.42. This compound also showed a pKa in series [2] of 6.27. The compound `CCCCNC(=O)c1cccc2c(Nc3ccc(NS(C)(=O)=O)cc3OC)c3ccccc3nc12` had a Log K in series [1] of 5.4. On to `CCOc1cccc2c(Nc3ccc(NS(C)(=O)=O)cc3OC)c3ccccc3nc12`, for which, in series [1], the Log K is 5.77. In series [2], the pKa came out at 7.37. `COc1cc(NS(C)(=O)=O)ccc1Nc1c2ccccc2nc2c(C(=O)NCC(C)O)cccc12` (stereo not given) returned a Log K in series [1] of 5.34. The same compound registered a pKa in series [2] of 6.2. The matching figures for `COc1cc(NS(C)(=O)=O)ccc1Nc1c2ccccc2nc2ccc(I)cc12`: 5.7 and 6.6.

In series [1], `COc1cc(NS(C)(=O)=O)ccc1Nc1c2ccccc2nc2c(C)cccc12` gave a Log K of 6.03. For the same compound, the pKa in series [2] is 7.39. In series [1], `COc1cc(NS(C)(=O)=O)ccc1Nc1c2ccccc2nc2c(C(N)=O)cccc12` came in with a Log K of 5.47. `COc1cc(NS(C)(=O)=O)ccc1Nc1c2ccccc2nc2cc(C(C)C)ccc12` yielded a Log K in series [1] of 5.46. Further, the pKa in series [2] is 7.66.

`C=NC(=O)CCc1cccc2c(Nc3ccc(NS(C)(=O)=O)cc3OC)c3ccccc3nc12` showed a Log K in series [1] of 5.65. In addition, the pKa in series [2] was determined as 7.15. In turn, `COc1cc(NS(C)(=O)=O)ccc1Nc1c2ccccc2nc2c(OCCCC(N)=O)cccc12` displayed a Log K in series [1] of 5.74. For the same compound, the pKa in series [2] came to 7.36. The matching figures for `COc1cc(NS(C)(=O)=O)ccc1Nc1c2ccccc2nc2c(F)cccc12`: 5.65 and 6.33. The matching figures for `COc1cc(NS(C)(=O)=O)ccc1Nc1c2ccccc2nc2c(OCCO)cccc12`: 5.74 and 7.36.

By pKa is commonly meant the negative logarithm of the acid dissociation constant.

Values taken from ChEMBL document CHEMBL1121904, “Potential antitumor agents. 35. Quantitative relationships between antitumor (L1210) potency and DNA binding for 4'-(9-acridinylamino)methanesulfon-m-anisidide analogues” (J Med Chem, 1981).
